# pIC50: −log10 of the molar value. Calls of active or inactive are those of the source. No cut-off for these calls is given here.
# Assays:
# [1] = Prodrug conversion in PBS at pH 7.4 containing H2O2 assessed as 8-HQ release by measuring retention time at 50 uM measured after 15 mins by HPLC analysis; assay type: ADME; settings: buffer, pH 7.4, 0.25 h
# [2] = Stability of compound in PBS at pH 7.4 containing H2O2 assessed as compound remaining at 50 uM measured after 30 mins by HPLC analysis; assay type: physicochemical; settings: buffer, pH 7.4, 0.5 h
# [3] = Prodrug conversion in solution containing Cu(II) assessed as 8-HQ-Cu(II) complex formation at 50 uM measured upto 30 mins by UV-Vis spectrophotometry; assay type: ADME; settings: 0.5 h
# OVCAR-3 = test: Cytotoxicity against CuCl2-treated human OVCAR-3 cells assessed as inhibition of cell viability incubated for 48 hrs by MTT assay; assay type: functional, cell-based; settings: OVCAR-3, 48 h
# HeLa = test: Cytotoxicity against CuCl2-treated human HeLa cells assessed as inhibition of cell viability incubated for 48 hrs by MTT assay; assay type: functional, cell-based
# [4] = Cytotoxicity against human MCF-10A cells assessed as cell survival at 10 uM incubated for 48 hrs by MTT assay relative to control; assay type: toxicity, cell-based; settings: read-out: Survival
# MDA-MB-231 [5] = test: Cytotoxicity against LPS-treated human MDA-MB-231 cells incubated for 48 hrs by MTT assay; assay type: functional, cell-based
# MDA-MB-231 [6] = test: Cytotoxicity against NAC-treated human MDA-MB-231 cells incubated for 48 hrs by MTT assay; assay type: functional, cell-based
# MDA-MB-231 [7] = test: Cytotoxicity against human MDA-MB-231 cells assessed as increase in red fluorescence at 0.4 to 0.8 uM by Calcein AM/PI staining based analysis; assay type: functional, cell-based; settings: dose 0.4-0.8 µM
# MCF-10A [8] = test: Cytotoxicity against human MCF-10A cells assessed as increase in red fluorescence at 0.4 to 0.8 uM by Calcein AM/PI staining based analysis; assay type: toxicity, cell-based; settings: dose 0.4-0.8 µM
# MDA-MB-231 [9] = test: Inhibition of DNA synthesis in human MDA-MB-231 cells by EdU incorporation assay; assay type: functional, cell-based
# MDA-MB-231 [10] = test: Induction of apoptosis in human MDA-MB-231 cells assessed as early apoptotic cells at 0.4 uM incubated for 24 hrs by Annexin V-FITC/PI staining based flow cytometry (reference value: 7.39 %); assay type: functional
# MDA-MB-231 [11] = test: Induction of apoptosis in human MDA-MB-231 cells assessed as late apoptotic cells at 0.4 uM incubated for 24 hrs by Annexin V-FITC/PI staining based flow cytometry (reference value: 5.81 %); assay type: functional
# MDA-MB-231 [12] = test: Induction of apoptosis in human MDA-MB-231 cells assessed as necrotic cells at 0.4 uM incubated for 24 hrs by Annexin V-FITC/PI staining based flow cytometry (reference value: 0.59 %); assay type: functional
# MDA-MB-231 [13] = test: Induction of apoptosis in human MDA-MB-231 cells assessed as early apoptotic cells at 0.8 uM incubated for 24 hrs by Annexin V-FITC/PI staining based flow cytometry (reference value: 7.39 %); assay type: functional
# MDA-MB-231 [14] = test: Induction of apoptosis in human MDA-MB-231 cells assessed as necrotic cells at 0.8 uM incubated for 24 hrs by Annexin V-FITC/PI staining based flow cytometry (reference value: 0.59 %); assay type: functional
# MDA-MB-231 [15] = test: Induction of apoptosis in human MDA-MB-231 cells assessed as viable cells at 1.2 uM incubated for 24 hrs by Annexin V-FITC/PI staining based flow cytometry (reference value: 86.2 %); assay type: functional; settings: read-out: Activity
# [16] = Induction of apoptosis in human MCF-10A cells assessed as viable cells at 0.4 uM incubated for 24 hrs by Annexin V-FITC/PI staining based flow cytometry (reference value: 92.5 %); assay type: toxicity, cell-based; settings: read-out: Activity
# MCF-10A [17] = test: Induction of apoptosis in human MCF-10A cells assessed as late apoptotic cells at 0.4 uM incubated for 24 hrs by Annexin V-FITC/PI staining based flow cytometry (reference value: 3.13 %); assay type: toxicity, cell-based
# MCF-10A [18] = test: Induction of apoptosis in human MCF-10A cells assessed as necrotic cells at 0.4 uM incubated for 24 hrs by Annexin V-FITC/PI staining based flow cytometry (reference value: 1.38 %); assay type: toxicity, cell-based
# MCF-10A [19] = test: Induction of apoptosis in human MCF-10A cells assessed as late apoptotic cells at 0.8 uM incubated for 24 hrs by Annexin V-FITC/PI staining based flow cytometry (reference value: 3.13 %); assay type: toxicity, cell-based
# [20] = Induction of apoptosis in human MCF-10A cells assessed as viable cells at 1.2 uM incubated for 24 hrs by Annexin V-FITC/PI staining based flow cytometry (reference value: 92.5 %); assay type: toxicity, cell-based; settings: read-out: Activity
# MCF-10A [21] = test: Induction of apoptosis in human MCF-10A cells assessed as necrotic cells at 1.2 uM incubated for 24 hrs by Annexin V-FITC/PI staining based flow cytometry (reference value: 1.38 %); assay type: toxicity, cell-based
# MDA-MB-231 [22] = test: Anti-migration activity in human MDA-MB-231 cells at 0.4 uM incubated for 24 hrs by wound healing assay (reference value: 45.4 %); assay type: functional
# MDA-MB-231 [23] = test: Anti-migration activity in human MDA-MB-231 cells at 0.8 uM incubated for 24 hrs by wound healing assay (reference value: 45.4 %); assay type: functional
# MDA-MB-231 [24] = test: Anti-migration activity in human MDA-MB-231 cells at 0.4 uM incubated for 48 hrs by wound healing assay (reference value: 65.2 %); assay type: functional
# MDA-MB-231 [25] = test: Anti-migration activity in human MDA-MB-231 cells at 0.8 uM incubated for 48 hrs by wound healing assay (reference value: 65.2 %); assay type: functional
# MDA-MB-231 [26] = test: Inhibition of mitochondrial membrane potential in human MDA-MB-231 cells assessed as increase in green fluorescence at 0.8 uM incubated for 24 hrs by JC-1 dye based analysis; assay type: functional, cell-based
# MCF-10A [27] = test: Inhibition of mitochondrial membrane potential in human MCF-10A cells assessed as increase in green fluorescence at 0.8 uM incubated for 24 hrs by JC-1 dye based analysis; assay type: toxicity, cell-based
# MDA-MB-231 [28] = test: Inhibition of mitochondrial membrane potential in human MDA-MB-231 cells assessed as decrease in ATP level at 0.4 to 0.8 uM incubated for 24 hrs by luminescence based analysis; assay type: functional, cell-based; settings: dose 0.4-0.8 µM
# MDA-MB-231 [29] = test: Inhibition of mitochondrial membrane potential in human MDA-MB-231 cells assessed as increase in intracellular calcium level at 0.4 to 0.8 uM incubated for 24 hrs by Fluo-4 AM dye based analysis; assay type: functional, cell-based; settings: dose 0.4-0.8 µM
# MCF-10A [30] = test: Inhibition of mitochondrial membrane potential in human MCF-10A cells assessed as increase in intracellular calcium level at 0.4 to 0.8 uM incubated for 24 hrs by Fluo-4 AM dye based analysis; assay type: toxicity, cell-based; settings: dose 0.4-0.8 µM
# MDA-MB-231 [31] = test: Antitumor activity against human MDA-MB-231 cells assessed as reduction in sphere volume incubated for 6 hrs followed by medium replacement without compound measured after 6 days by microscopic analysis; assay type: functional, cell-based
# MDA-MB-231 [32] = test: Antitumor activity against human MDA-MB-231 cells xenografted in BALB/c nude mouse assessed as tumor growth inhibition at 10 to 20 mg/kg, iv administered every two days for 21 days; assay type: functional, organism-based; settings: dose 10-20 mg/kg, time 21.0 day
# MDA-MB-231 [33] = test: Antitumor activity against human MDA-MB-231 cells xenografted in BALB/c nude mouse assessed as tumor size at 20 mg/kg, iv administered every two days for 21 days (reference value: 1940 mm3); assay type: functional; settings: time 21 day
structure (smiles),measurement,setting,value
CC1(C)OB(c2ccc(C[n+]3cccc4cccc(O)c43)cc2)OC1(C)C.[Br-],Retention_time,[1],2.8 min
same,Stability,[2],Unstable
same,Drug metabolism,[3],metabolite_detected
same,pIC50,OVCAR-3,5.18
same,pIC50,HeLa,4.95
same,"viability at 48 h, 10 µM",[4],86%
same,Activity,MDA-MB-231 [5],Active
same,Activity,MDA-MB-231 [6],inactive
same,Activity,MDA-MB-231 [7],Active
same,Activity,MCF-10A [8],Non-toxic
same,inhibition,MDA-MB-231 [9],Active
same,Activity,MDA-MB-231 [10],14.2%
same,Activity,MDA-MB-231 [11],13.2%
same,Activity,MDA-MB-231 [12],1.47%
same,Activity,MDA-MB-231 [13],40.3%
same,Activity,MDA-MB-231 [14],7.08%
same,viability at 1.2 µM,MDA-MB-231 [15],6.61%
same,"viability at 24 h, 0.4 µM",[16],94.9%
same,Activity,MCF-10A [17],2.74%
same,Activity,MCF-10A [18],0.36%
same,Activity,MCF-10A [19],3.77%
same,"viability at 24 h, 1.2 µM",[20],93.3%
same,Activity,MCF-10A [21],0.84%
same,Activity,MDA-MB-231 [22],16.5%
same,Activity,MDA-MB-231 [23],7.3%
same,Activity,MDA-MB-231 [24],34.6%
same,Activity,MDA-MB-231 [25],12.8%
same,inhibition,MDA-MB-231 [26],Active
same,Activity,MCF-10A [27],Non-toxic
same,inhibition,MDA-MB-231 [28],Active
same,inhibition,MDA-MB-231 [29],Active
same,Activity,MCF-10A [30],Non-toxic
same,Activity,MDA-MB-231 [31],Active
same,inhibition,MDA-MB-231 [32],Active
same,Activity,MDA-MB-231 [33],710 mm3

# — ChEMBL document CHEMBL6153037, “Developing dual-responsive quinolinium prodrugs of 8-hydroxyquinoline by harnessing the dual chelating sites” (Eur J Med Chem, 2025)
